Reference: patent US11236069B2, “KIF18A inhibitors” (AMGEN INC., priority 2018, dated 2022)

Each compound was assayed against Recombinant human KIF18A (1-467 His-tagged) protein (Homo sapiens (Human), UniProt Q8NI77) (assay: KIF18A Enzyme Assay: microtubule-stimulated ATPase activity (ADP-Glo)). Details: read-out: KIF18A ATPase IC50; 30 nM KIF18A, 30 μg/mL pig microtubules, ATP at Km 75 μM, ADP-Glo luminescence.
Recombinant human KIF18A (1-467 His-tagged) protein, sequence (Q8NI77 1-467): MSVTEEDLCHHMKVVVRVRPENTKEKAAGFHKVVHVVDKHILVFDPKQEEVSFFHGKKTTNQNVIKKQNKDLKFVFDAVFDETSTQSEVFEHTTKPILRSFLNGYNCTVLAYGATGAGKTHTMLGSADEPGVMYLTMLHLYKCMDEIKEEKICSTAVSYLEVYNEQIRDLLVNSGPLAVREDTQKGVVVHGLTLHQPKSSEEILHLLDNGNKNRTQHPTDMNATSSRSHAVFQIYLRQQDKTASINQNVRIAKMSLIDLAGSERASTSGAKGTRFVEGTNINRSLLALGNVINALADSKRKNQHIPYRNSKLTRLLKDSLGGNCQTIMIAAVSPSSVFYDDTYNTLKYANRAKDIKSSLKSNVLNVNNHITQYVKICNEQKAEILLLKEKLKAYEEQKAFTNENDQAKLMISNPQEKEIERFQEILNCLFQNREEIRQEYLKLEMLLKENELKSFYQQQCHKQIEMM
Recombinant human KIF18A (1-467 His-tagged) protein, sequence (P02550 whole entry partner): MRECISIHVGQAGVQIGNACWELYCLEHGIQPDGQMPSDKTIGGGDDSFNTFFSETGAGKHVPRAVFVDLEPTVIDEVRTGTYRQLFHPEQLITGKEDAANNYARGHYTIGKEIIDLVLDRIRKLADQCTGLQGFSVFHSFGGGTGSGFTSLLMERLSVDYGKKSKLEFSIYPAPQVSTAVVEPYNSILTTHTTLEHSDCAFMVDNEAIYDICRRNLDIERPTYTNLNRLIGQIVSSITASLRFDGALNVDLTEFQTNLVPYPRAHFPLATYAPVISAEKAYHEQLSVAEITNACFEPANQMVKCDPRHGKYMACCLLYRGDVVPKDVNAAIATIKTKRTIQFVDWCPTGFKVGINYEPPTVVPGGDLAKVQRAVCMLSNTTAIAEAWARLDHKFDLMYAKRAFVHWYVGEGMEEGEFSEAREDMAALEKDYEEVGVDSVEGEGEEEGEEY
Recombinant human KIF18A (1-467 His-tagged) protein, sequence (P02554 whole entry partner): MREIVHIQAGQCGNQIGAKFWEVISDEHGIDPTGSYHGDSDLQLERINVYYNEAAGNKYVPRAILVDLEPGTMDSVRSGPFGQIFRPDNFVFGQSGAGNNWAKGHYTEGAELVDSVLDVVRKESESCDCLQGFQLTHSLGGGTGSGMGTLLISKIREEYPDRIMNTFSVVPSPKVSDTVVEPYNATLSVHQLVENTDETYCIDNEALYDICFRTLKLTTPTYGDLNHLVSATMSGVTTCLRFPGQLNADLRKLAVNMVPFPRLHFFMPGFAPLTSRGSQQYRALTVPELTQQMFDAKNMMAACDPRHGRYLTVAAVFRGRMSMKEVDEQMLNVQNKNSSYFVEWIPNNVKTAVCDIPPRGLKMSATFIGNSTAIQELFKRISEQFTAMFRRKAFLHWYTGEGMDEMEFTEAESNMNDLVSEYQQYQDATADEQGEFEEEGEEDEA
Excerpt: KIF18A Enzyme Assay: Microtubule-stimulated ATPase activity assay is used to measure KIF18A enzyme activity after treatment with compound. Compounds were 2-fold serially diluted in DMSO (Sigma Inc) over 22-point concentration range. […] The assay measures ADP formed from the ATPase reaction.
Cc1cc(NC(=O)c2ccc(S(=O)(=O)C3CC3)cc2N2CCC3(CC2)CC3)nc(N2CCC(F)(F)CC2)n1 [Example 14-5, 4-(Cyclopropylsulfonyl)-N-(2-(4,4-difluoropiperidin-1-yl)-6-methylpyrimidin-4-yl)-2-(6-azaspiro[2.5]octan-6-yl)benzamide] gave an IC50 of 826 nM. Cc1cc(NC(=O)c2ccc(NS(=O)(=O)CCO)cc2N2CCC3(CC2)CC3)nc(N2[C@H](C)COC[C@H]2C)n1 [Example 11-50, N-(2-((3R,5R)-3,5-Dimethylmorpholino)-6-methylpyrimidin-4-yl)-4-((2-hydroxyethyl)sulfonamido)-2-(6-azaspiro[2.5]octan-6-yl)benzamide] showed an IC50 of 187 nM. Compound Cc1cc(NC(=O)c2ccc(NS(=O)(=O)CCO)cc2N2CCC3(CC2)CC3)nc(N2C[C@H]3C[C@H]3C2)n1 [Example 11-29, N-(2-((1R,5S)-3-Azabicyclo[3.1.0]hexan-3-yl)-6-methylpyrimidin-4-yl)-4-((2-hydroxyethyl)sulfonamido)-2-(6-azaspiro[2.5]octan-6-yl)benzamide] has an IC50 of 20 nM. Cc1cc(NC(=O)c2ccc(S(=N)(=O)C3CC3)cc2N2CCC3(CC2)CC3)nc(N2CC(F)(F)C2)n1 (centres unmarked) [Example 19-9, 4-(Cyclopropanesulfonimidoyl)-N-(2-(3,3-difluoroazetidin-1-yl)-6-methylpyrimidin-4-yl)-2-(6-azaspiro[2.5]octan-6-yl)benzamide] showed an IC50 of 69 nM. In the case of Cc1cc(NC(=O)c2ccc(S(=N)(=O)C(C)C)cc2N2CCC3(CC2)CC3)nc(N2CCC(F)(F)CC2)n1 (centres unmarked) [Example 19-5, N-(2-(4,4-Difluoropiperidin-1-yl)-6-methylpyrimidin-4-yl)-4-(propan-2-ylsulfonimidoyl)-2-(6-azaspiro[2.5]octan-6-yl)benzamide], the IC50 is reported as 175 nM. Cc1cc(NC(=O)c2ccc(NS(=O)(=O)C3CCCC3)cc2N2CCC3(CC2)CC3)nc(N2CCC(F)(F)CC2)n1 [Example 6-10, 4-(Cyclopentanesulfonamido)-N-(2-(4,4-difluoropiperidin-1-yl)-6-methylpyrimidin-4-yl)-2-(6-azaspiro[2.5]octan-6-yl)benzamide] was tested, and the IC50 was 2420 nM. In the case of Cc1cc(NC(=O)c2ccc(NS(=O)(=O)[C@H](C)CO)cc2N2CCC3(CC2)CC3)nc(N2CC(F)(F)C2)n1 (single isomer, unassigned) [Example 11-76], the IC50 is reported as 20 nM. Work on Cc1cc(NC(=O)c2ccc(NS(=O)(=O)[C@H]3CCOC3)cc2N2CCC3(CC2)CC3)nc(N2CCC(F)(F)CC2)n1 [Example 11-72, (S)-N-(2-(4,4-Difluoropiperidin-1-yl)-6-methylpyrimidin-4-yl)-2-(6-azaspiro[2.5]octan-6-yl)-4-((tetrahydrofuran)-3-sulfonamido)benzamide] yielded an IC50 of 135 nM. Cc1cc(NC(=O)c2ccc(NS(=O)(=O)CCO)cc2N2CCC3(CC2)CC3)nc(N2CC3C[C@]3(O)C2)n1 (stereo partly drawn) [Example 11-32, N-(2-((1R)-1-Hydroxy-3-azabicyclo[3.1.0]hexan-3-yl)-6-methylpyrimidin-4-yl)-4-((2-hydroxyethyl)sulfonamido)-2-(6-azaspiro[2.5]octan-6-yl)benzamide] showed an IC50 of 193 nM. Cc1cc(NC(=O)c2ccc(S(=O)(=O)NC3(C)COC3)cc2N2CCC3(CC2)CC3)nc(C(C)(C)O)n1 [Example 2-1, N-(2-(2-Hydroxypropan-2-yl)-6-methylpyrimidin-4-yl)-4-(N-(3-methyloxetan-3-yl)sulfamoyl)-2-(6-azaspiro[2.5]octan-6-yl)benzamide] gave an IC50 of 65 nM. Cc1cc(NC(=O)c2ccc(S(=O)(=O)NCCO)cc2N2CCC3(CC2)CC3)nc(N2CCC(F)(F)CC2)n1 [Example 17-3, N-(2-(4,4-Difluoropiperidin-1-yl)-6-methylpyrimidin-4-yl)-4-(N-(2-hydroxyethyl)sulfamoyl)-2-(6-azaspiro[2.5]octan-6-yl)benzamide] showed an IC50 of 63 nM. Cc1cc(NC(=O)c2ccc(NS(=O)(=O)C(C)(C)C)cc2N2CCC3(CC2)CC3)nc(N2CCC(F)(F)CC2)n1 [Example 6-14, N-(2-(4,4-Difluoropiperidin-1-yl)-6-methylpyrimidin-4-yl)-4-((1,1-dimethylethyl)sulfonamido)-2-(6-azaspiro[2.5]octan-6-yl)benzamide] showed an IC50 of 413 nM. Compound CC1(NS(=O)(=O)c2ccc(C(=O)Nc3ccnc(N4CCC(F)(F)CC4)c3)c(N3CCC4(CC3)CC4)c2)COC1 [Example 2-4, N-(2-(4,4-Difluoropiperidin-1-yl)pyridin-4-yl)-4-(N-(3-methyloxetan-3-yl)sulfamoyl)-2-(6-azaspiro[2.5]octan-6-yl)benzamide] has an IC50 of 29 nM. For Cc1cc(NC(=O)c2cc(Cl)c(NS(=O)(=O)CCO)cc2N2CCC3(CC2)CC3)nc(N2CCC(F)(F)CC2)n1 [Example 6-34, 5-Chloro-N-(2-(4,4-difluoropiperidin-1-yl)-6-methylpyrimidin-4-yl)-4-((2-hydroxyethyl)sulfonamido)-2-(6-azaspiro[2.5]octan-6-yl)benzamide], the IC50 was 92.2 nM. For Cc1cc(NC(=O)c2ccc(NS(=O)(=O)C[C@H](C)O)cc2N2CCC3(CC2)CC3)nc(N2CCC(F)(F)CC2)n1 [Example 6-32-2, (S)-N-(2-(4,4-Difluoropiperidin-1-yl)-6-methylpyrimidin-4-yl)-4-((2-hydroxypropyl)sulfonamido)-2-(6-azaspiro[2.5]octan-6-yl)benzamide], the IC50 was 141 nM. Cc1cc(NC(=O)c2ccc(S(C)(=O)=O)cc2N2CCC3(CC2)CC3)nc(NC[C@H](C)O)n1 [Example 1-5, (S)-N-(2-((2-Hydroxypropyl)amino)-6-methylpyrimidin-4-yl)-4-(methylsulfonyl)-2-(6-azaspiro[2.5]octan-6-yl)benzamide] showed an IC50 of 451 nM. Cc1cc(NC(=O)c2ccc(S(=O)(=O)NC3(C)COC3)cc2N2CCC3(CC2)CC3)nc(OCCC(F)(F)F)n1 [Example 1-6, N-(6-Methyl-2-(3,3,3-trifluoropropoxy)pyrimidin-4-yl)-4-(N-(3-methyloxetan-3-yl)sulfamoyl)-2-(6-azaspiro[2.5]octan-6-yl)benzamide] was tested, and the IC50 was 32 nM. Cc1cc(NC(=O)c2ccc(S(=O)(=O)N[C@@H](C)CO)cc2N2CCC3(CC2)CC3)nc(N2CCC(F)(F)CC2)n1 [Example 17-7, (S)-N-(2-(4,4-Difluoropiperidin-1-yl)-6-methylpyrimidin-4-yl)-4-(N-(1-hydroxypropan-2-yl)sulfamoyl)-2-(6-azaspiro[2.5]octan-6-yl)benzamide] was tested, and the IC50 was 147 nM. Work on C[C@@H]1CN(c2nccc(NC(=O)c3ccc(S(=O)(=O)NC4(C)COC4)cc3N3CCC4(CC3)CC4)n2)CCO1 [Example 2-2, (R)-N-(2-(2-Methylmorpholino)pyrimidin-4-yl)-4-(N-(3-methyloxetan-3-yl)sulfamoyl)-2-(6-azaspiro[2.5]octan-6-yl)benzamide] yielded an IC50 of 68 nM. C[C@@H]1CN(c2nccc(NC(=O)c3ccc(NS(=O)(=O)C[C@@H](C)O)cc3N3CCC4(CC3)CC4)n2)CCO1 [Example 6-33-2, 4-(((R)-2-hydroxypropyl)sulfonamido)-N-(2-((R)-2-methylmorpholino)pyrimidin-4-yl)-2-(6-azaspiro[2.5]octan-6-yl)benzamide] was tested, and the IC50 was 86 nM. Compound Cc1cc(NC(=O)c2ccc(NS(C)(=O)=O)cc2N2CCC3(CC2)CC3)nc(N2CCC(F)CC2)n1 [Example 11-81, N-(2-(4-Fluoropiperidin-1-yl)-6-methylpyrimidin-4-yl)-4-(methylsulfonamido)-2-(6-azaspiro[2.5]octan-6-yl)benzamide] has an IC50 of 60 nM. Work on Cc1cc(NC(=O)c2ccc([S@@](=N)(=O)C3CC3)cc2N2CCC3(CC2)CC3)nc(N2CCO[C@H](C)C2)n1 [Example 19-8, 2-(6-Azaspiro[2.5]octan-6-yl)-4-(R-cyclopropylsulfonimidoyl)-N-(6-methy-2-((2R)-2-methyl-4-moprpholinyl)-4-pyrimidinyl)benzamide] yielded an IC50 of 78 nM. Compound Cc1cc(NC(=O)c2ccc(S(C)(=O)=O)cc2N2CCC3(CC2)CC3)nc(NCCO)n1 [Example 1-3, N-(2-((2-Hydroxyethyl)amino)-6-methylpyrimidin-4-yl)-4-(methylsulfonyl)-2-(6-azaspiro[2.5]octan-6-yl)benzamide] has an IC50 of 849 nM. Cc1cc(NC(=O)c2cc(F)c(NS(=O)(=O)CCO)cc2N2CCC3(CC2)CC3)nc(N2CCC(F)(F)CC2)n1 [Example 11-67, N-(2-(4,4-Difluoropiperidin-1-yl)-6-methylpyrimidin-4-yl)-5-fluoro-4-((2-hydroxyethyl)sulfonamido)-2-(6-azaspiro[2.5]octan-6-yl)benzamide] showed an IC50 of 34 nM. For Cc1cc(NC(=O)c2ccc(NS(=O)(=O)CCO)cc2N2CCC3(CC2)CC3)nc(OC2CCC2)n1 [Example 11-4, N-(2-Cyclobutoxy-6-methylpyrimidin-4-yl)-4-((2-hydroxyethyl)sulfonamido)-2-(6-azaspiro[2.5]octan-6-yl)benzamide], the IC50 was 18 nM. Cc1cc(NC(=O)c2ccc(NS(=O)(=O)C(C)(C)CO)cc2N2CCC3(CC2)CC3)nc(N2CCC(F)(F)CC2)n1 [Example 6-20, N-(2-(4,4-Difluoropiperidin-1-yl)-6-methylpyrimidin-4-yl)-4-((2-hydroxy-1,1-dimethylethyl)sulfonamido)-2-(6-azaspiro[2.5]octan-6-yl)benzamide] was tested, and the IC50 was 49 nM. Work on Cc1cc(NC(=O)c2ccc(S(=O)(=O)NC3(C)COC3)cc2N2CCC3(CC2)CC3)nc(N2CCC(F)(F)CC2)n1 [Example 2-5, N-(2-(4,4-Difluoropiperidin-1-yl)-6-methylpyrimidin-4-yl)-4-(N-(3-methyloxetan-3-yl)sulfamoyl)-2-(6-azaspiro[2.5]octan-6-yl)benzamide] yielded an IC50 of 103 nM. Work on Cc1cc(NC(=O)c2ccc(S(C)(=N)=O)cc2N2CCC3(CC2)CC3)nc(N2CCC(F)(F)CC2)n1 (centres unmarked) [Example 19-2, N-(2-(4,4-Difluoropiperidin-1-yl)-6-methylpyrimidin-4-yl)-4-(methylsulfonimidoyl)-2-(6-azaspiro[2.5]octan-6-yl)benzamide] yielded an IC50 of 438 nM. For Cc1cc(NC(=O)c2ccc(NS(=O)(=O)C3([C@@H](C)O)CC3)cc2N2CCC3(CC2)CC3)nc(N2CCC(F)(F)CC2)n1 [Example 6-31-1, (R)-N-(2-(4,4-Difluoropiperidin-1-yl)-6-methylpyrimidin-4-yl)-4-((1-(1-hydroxyethyl)cyclopropane)-1-sulfonamido)-2-(6-azaspiro[2.5]octan-6-yl)benzamide], the IC50 was 324 nM.
